Where two headings read alike, the source gives them in different places.
System: ulcer
Experiment: Anti-ulcer test (restraint and water immersion ulcer in rats, i.p.)
Type: in vivo, Male Wistar rats
Conditions: Rattus norvegicus, ip, read-out: % Inhibition of Ulcer
Description: The anti-ulcer and anti-edema activity of the compounds was evaluated in efficacy tests described below.
Male Wistar rats weighing about 150 g on average were not fed for 24 hours before the test. Then a solution or suspension of a predetermined concentration of the test compound in physiological saline was administered to them intraperitoneally. One hour after the administration,each rat was restrained in a net cage and submerged in a water both (21° C.) from the tail to xiphistrenun for 6 hours. Test animals were then killed (by dislocation of the cervical vertebrae), the stomach was removed and incised along the curvatura ventriculi major, and the inside wall of the stomach was pathologically examined under microscopic observation. Rats in which the occurrence of an ulceration was substantially not observed were rated O, while others were rated 0.5, 1, 2 or 3, depending on the severity of the ulcer development. The percent inhibition of ulcer was calculated by the following formula: [formula]

SMILES | inhibition in vivo at 50 mg/kg (50 mg/kg i.p.) | inhibition in vivo at 50 mg/kg
CC(C)CC(NC(=O)C(O)C1OC(=O)CC1NC(=O)c1nnnn1C)C1Cc2cccc(O)c2C(=O)O1 (centres unmarked) [IIIa-1-27] | 66% | 
CC(=O)n1cccc1C(=O)NC1CC(=O)OC1C(O)C(=O)NC(CC(C)C)C1Cc2cccc(O)c2C(=O)O1 (centres unmarked) [IIIa-1-28] | 66% | 
CC(C)CC(NC(=O)C(O)C1OC(=O)CC1NC(=O)c1cccn1C)C1Cc2cccc(O)c2C(=O)O1 (centres unmarked) [IIIa-1-29] | 66% | 
COc1ccc2ncc(C(=O)NC3CC(=O)OC3C(O)C(=O)NC(CC(C)C)C3Cc4cccc(O)c4C(=O)O3)cc2c1 (centres unmarked) [IIIa-1-30] | 56% | 
CC(C)CC(NC(=O)C(O)C1OC(=O)CC1NC(=O)CCCBr)C1Cc2cccc(O)c2C(=O)O1 (centres unmarked) [IIIa-1-31] | 66% | 
CCC(=O)C(=O)NC1CC(=O)OC1C(O)C(=O)NC(CC(C)C)C1Cc2cccc(O)c2C(=O)O1 (centres unmarked) [IIIa-1-32] | 66% | 
CC(C)CC(NC(=O)C(O)C1OC(=O)CC1NC(=O)C1CCCCC1=O)C1Cc2cccc(O)c2C(=O)O1 (centres unmarked) [IIIa-1-33] | 66% | 
CC(=O)Oc1ccc(C(=O)NC2CC(=O)OC2C(O)C(=O)NC(CC(C)C)C2Cc3cccc(O)c3C(=O)O2)cc1 (centres unmarked) [IIIa-1-34] | 66% | 
CC(C)CC(NC(=O)C(O)C1OC(=O)CC1NC(=O)c1ccc(O)cc1)C1Cc2cccc(O)c2C(=O)O1 (centres unmarked) [IIIa-1-35] | 66% | 
CCOC(=O)CCC(=O)NC1CC(=O)OC1C(O)C(=O)NC(CC(C)C)C1Cc2cccc(O)c2C(=O)O1 (centres unmarked) [IIIa-1-36] | 66% | 
CSCC(=O)NC1CC(=O)OC1C(O)C(=O)NC(CC(C)C)C1Cc2cccc(O)c2C(=O)O1 (centres unmarked) [IIIa-1-44] | 66% | 
CCCCCSCC(=O)NC1CC(=O)OC1C(O)C(=O)NC(CC(C)C)C1Cc2cccc(O)c2C(=O)O1 (centres unmarked) [IIIa-1-45] | 66% | 
CSc1ccc(C(=O)NC2CC(=O)OC2C(O)C(=O)NC(CC(C)C)C2Cc3cccc(O)c3C(=O)O2)cc1 (centres unmarked) [IIIa-1-46] | 66% | 
CCCCCSc1ccc(C(=O)NC2CC(=O)OC2C(O)C(=O)NC(CC(C)C)C2Cc3cccc(O)c3C(=O)O2)cc1 (centres unmarked) [IIIa-1-47] | 56% | 
CC(=O)OC(C)CC(=O)NC1CC(=O)OC1C(O)C(=O)NC(CC(C)C)C1Cc2cccc(O)c2C(=O)O1 (centres unmarked) [IIIa-1-48] | 66% | 
CCCCCC(=O)OC(C)CC(=O)NC1CC(=O)OC1C(O)C(=O)NC(CC(C)C)C1Cc2cccc(O)c2C(=O)O1 (centres unmarked) [IIIa-1-49] | 56% | 
COC(=O)c1ccc(C(=O)NC2CC(=O)OC2C(O)C(=O)NC(CC(C)C)C2Cc3cccc(O)c3C(=O)O2)cc1 (centres unmarked) [IIIa-1-50] | 66% | 
CCCCCOC(=O)c1ccc(C(=O)NC2CC(=O)OC2C(O)C(=O)NC(CC(C)C)C2Cc3cccc(O)c3C(=O)O2)cc1 (centres unmarked) [IIIa-1-51] | 44% | 
C#CC(=O)NC1CC(=O)OC1C(O)C(=O)NC(CC(C)C)C1Cc2cccc(O)c2C(=O)O1 (centres unmarked) [IIIa-1-52] | 66% | 
CC(C)CCc1ccc(C(C)C(=O)NC2CC(=O)OC2C(O)C(=O)NC(CC(C)C)C2Cc3cccc(O)c3C(=O)O2)cc1 (centres unmarked) [IIIa-1-53] | 56% | 
C/C=C/C(=O)NC1CC(=O)OC1C(O)C(=O)NC(CC(C)C)C1Cc2cccc(O)c2C(=O)O1 (centres unmarked) [IIIa-1-54] | 66% | 
CC(C)CC(NC(=O)C(O)C1OC(=O)CC1NC(=O)C=Cc1ccoc1)C1Cc2cccc(O)c2C(=O)O1 (centres unmarked) [IIIa-1-57] | 56% | 
CC(C)CC(NC(=O)C(O)C1OC(=O)CC1NC(=O)Cc1cccnc1)C1Cc2cccc(O)c2C(=O)O1 (centres unmarked) [IIIa-1-58] | 66% | 
CC(C)CC(NC(=O)C(O)C1OC(=O)CC1NC(=O)C1CCC=CO1)C1Cc2cccc(O)c2C(=O)O1 (centres unmarked) [IIIa-1-59] | 66% | 

SMILES | inhibition in vivo at 50 mg/kg (50 mg/kg i.p.) | inhibition in vivo at 50 mg/kg
CC(C)CC(NC(=O)C(O)C1OC(=O)CC1NC(=O)c1cocc1C(=O)O)C1Cc2cccc(O)c2C(=O)O1 (centres unmarked) [IIIa-1-60] | 66% | 
CC(C)CC(NC(=O)C(O)C1OC(=O)CC1NC(=O)C1CCCCCCC1)C1Cc2cccc(O)c2C(=O)O1 (centres unmarked) [IIIa-1-62] | 66% | 
CC(C)CC(NC(=O)C(O)C1OC(=O)CC1NC(=O)CCC1CCCC1)C1Cc2cccc(O)c2C(=O)O1 (centres unmarked) [IIIa-1-63] | 66% | 
CC(C)CC(NC(=O)C(O)C1OC(=O)CC1NC(=O)Cc1ccc2ccccc2c1)C1Cc2cccc(O)c2C(=O)O1 (centres unmarked) [IIIa-1-64] | 56% | 
Cc1ccc(CC(=O)NC2CC(=O)OC2C(O)C(=O)NC(CC(C)C)C2Cc3cccc(O)c3C(=O)O2)cc1 (centres unmarked) [IIIa-1-65] | 66% | 
CC(C)=CCC/C(C)=C/CC/C(C)=C/CCC(=O)NC1CC(=O)OC1C(O)C(=O)NC(CC(C)C)C1Cc2cccc(O)c2C(=O)O1 (centres unmarked) [IIIa-1-67] | 66% | 
COC(=O)C1CCC(C(=O)NC2CC(=O)OC2C(O)C(=O)NC(CC(C)C)C2Cc3cccc(O)c3C(=O)O2)CC1 (centres unmarked) [IIIa-1-68] | 66% | 
CC(C)CC(NC(=O)C(O)C1OC(=O)CC1NC(=O)c1ccc(C(C)C)cc1)C1Cc2cccc(O)c2C(=O)O1 (centres unmarked) [IIIa-1-69] | 66% | 
Cc1ccc(C(C)C)cc2c(C(=O)NC3CC(=O)OC3C(O)C(=O)NC(CC(C)C)C3Cc4cccc(O)c4C(=O)O3)c(C)cc1-2 (centres unmarked) [IIIa-1-70] | 56% | 
CC(C)CC(NC(=O)C(O)C1OC(=O)CC1NC(=O)C1CC2C=CC1C2)C1Cc2cccc(O)c2C(=O)O1 (centres unmarked) [IIIa-1-71] |  | 66%
COC1CCC(C(=O)NC2CC(=O)OC2C(O)C(=O)NC(CC(C)C)C2Cc3cccc(O)c3C(=O)O2)CC1 (centres unmarked) [IIIa-1-73] | 66% | 
CC(=O)OC1CCC(C(=O)NC2CC(=O)OC2C(O)C(=O)NC(CC(C)C)C2Cc3cccc(O)c3C(=O)O2)CC1 (centres unmarked) [IIIa-1-74] | 66% | 
CC(C)CC(NC(=O)C(O)C1OC(=O)CC1NC(=O)Cn1cnnn1)C1Cc2cccc(O)c2C(=O)O1 (centres unmarked) [IIIa-1-75] | 66% | 
CCCCCc1ccc(C(=O)NC2CC(=O)OC2C(O)C(=O)NC(CC(C)C)C2Cc3cccc(O)c3C(=O)O2)cc1 (centres unmarked) [IIIa-1-76] | 66% | 
CCCC=Cc1ccc(C(=O)NC2CC(=O)OC2C(O)C(=O)NC(CC(C)C)C2Cc3cccc(O)c3C(=O)O2)cc1 (centres unmarked) [IIIa-1-77] | 66% | 
CC(C)CC(NC(=O)C(O)C1OC(=O)CC1NC(=O)CCCCCCCCCO)C1Cc2cccc(O)c2C(=O)O1 (centres unmarked) [IIIa-1-78] | 66% | 
CC(C)CC(NC(=O)C(O)C1OC(=O)CC1NC(=O)CC1CC1)C1Cc2cccc(O)c2C(=O)O1 (centres unmarked) [IIIa-1-79] | 66% | 
CC(Br)=C(C)C(=O)NC1CC(=O)OC1C(O)C(=O)NC(CC(C)C)C1Cc2cccc(O)c2C(=O)O1 (centres unmarked) [IIIa-1-80] | 66% | 
CC(C)=CC(=O)NC1CC(=O)OC1C(O)C(=O)NC(CC(C)C)C1Cc2cccc(O)c2C(=O)O1 (centres unmarked) [IIIa-1-81] | 66% | 
CSC(C)(C)CC(=O)NC1CC(=O)OC1C(O)C(=O)NC(CC(C)C)C1Cc2cccc(O)c2C(=O)O1 (centres unmarked) [IIIa-1-82] |  | 66%
COC(C)(C)CC(=O)NC1CC(=O)OC1C(O)C(=O)NC(CC(C)C)C1Cc2cccc(O)c2C(=O)O1 (centres unmarked) [IIIa-1-83] | 66% | 
CC(C)CC(NC(=O)C(OC(=O)C(Cl)(Cl)Cl)C1OC(=O)CC1NC(=O)C(Cl)(Cl)Cl)C1Cc2cccc(O)c2C(=O)O1 (centres unmarked) [IIIa-2-1] | 44% | 
CC(=O)NC1CC(=O)OC1C(OC(C)=O)C(=O)NC(CC(C)C)C1Cc2cccc(O)c2C(=O)O1 (centres unmarked) [IIIa-2-2] | 44% | 

Source: patent US4393225A, “AI-77 Compounds and pharmaceutically acceptable salts thereof” (Asahi Kasei Kogyo Kabushiki Kaisha, priority 1979, dated 1983)
